≈ marks a conversion by molar mass, not a printed value. Calls of active or inactive are those of the source. No cut-off for these calls is given here.
Key:
Bacillus subtilis [1] = test: Antibacterial activity against Bacillus subtilis ATCC 6633 assessed as inhibition zone at 25 ug/mL by Kirby Bauer paper diffusion method; assay type: functional; conditions: read-out: DIZ
Escherichia coli = test: Antibacterial activity against Escherichia coli O157:H7 by Kirby Bauer paper diffusion method; assay type: functional, organism-based
Bacillus subtilis [2] = test: Antibacterial activity against Bacillus subtilis ATCC 6633 by Kirby Bauer paper diffusion method; assay type: functional
Bacillus subtilis [3] = test: Antibacterial activity against Bacillus subtilis ATCC 6633 assessed as inhibition zone at 15 ug/mL by Kirby Bauer paper diffusion method; assay type: functional; conditions: read-out: DIZ
Bacillus subtilis [4] = test: Antibacterial activity against Bacillus subtilis ATCC 6633 assessed as inhibition zone at 10 ug/mL by Kirby Bauer paper diffusion method; assay type: functional; conditions: read-out: DIZ

| Structure (SMILES) | zone of inhibition at 25 µg/mL (Bacillus subtilis [1]) | Activity (Escherichia coli) | MIC (Bacillus subtilis [2]) | zone of inhibition at 15 µg/mL (Bacillus subtilis [3]) | zone of inhibition at 10 µg/mL (Bacillus subtilis [4]) |
| --- | --- | --- | --- | --- | --- |
| O=C(Nc1ccccc1)c1cc(O)c(O)c(O)c1 | 0 mm | inactive | 25 µg/mL (≈ 102 µM) | – | – |
| Cc1c2oc(=O)ccc2cc2c(O)c(C(C)(C)O)oc12 | 4 mm | inactive | 25 µg/mL (≈ 91.2 µM) | – | – |
| O=C1C[C@]2(C=Cc3c(c4ccccc4oc3=O)O2)CN1 | 5 mm | inactive | 25 µg/mL (≈ 92.8 µM) | – | – |
| O=C(NCCO)c1ccccc1 | – | inactive | 15 µg/mL (≈ 90.8 µM) | 7 mm | – |
| C#Cc1ccc(-c2c(C=O)c3ccccc3oc2=O)cc1 | 5 mm | inactive | 25 µg/mL (≈ 91.1 µM) | – | – |
| CC1(C)S[C@@H]2[C@H](NC(=O)Cc3ccccc3)C(=O)N2[C@H]1C(=O)[O-].[K+] [PENICILLIN G POTASSIUM] | – | – | 10 µg/mL | 20 mm | 16 mm |
